Here are results for eight compounds from US20240116985A1, “STAPLED PEPTIDES AND METHODS THEREOF” (priority 2020, published 2024).

As usually defined, the Solubility is the concentration that dissolves in the medium under given conditions. Low values mean little dissolved substance, high ones much dissolved substance. The term EC50 denotes the concentration that produces a half-maximal response. A low value points to a more potent agent.

Values after ≈ are worked out from the molar mass of the structure shown. Like-named read-outs stand apart in the source and are kept apart here. Some results are limits rather than exact numbers.

One data set is described as follows: CHI Log D procedure. The class given is physicochemical. The following applies: pH 7.4.
A short description of the next data set: Solubility in PBS. The class given is physicochemical. The procedure, abridged:
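Solubility is derived from HPLC peak areas: the ratio of the PBS supernatant peak to a 50 μM DMSO peptide peak, times 50 uM.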

Data set [1] concerns the target T1, full-length beta-Catenin (Uniprot ID P35222) (Homo sapiens, UniProt P35222).
T1 construct: 10 nM full-length beta-Catenin (Uniprot ID P35222)
T1 sequence (P35222 1-781): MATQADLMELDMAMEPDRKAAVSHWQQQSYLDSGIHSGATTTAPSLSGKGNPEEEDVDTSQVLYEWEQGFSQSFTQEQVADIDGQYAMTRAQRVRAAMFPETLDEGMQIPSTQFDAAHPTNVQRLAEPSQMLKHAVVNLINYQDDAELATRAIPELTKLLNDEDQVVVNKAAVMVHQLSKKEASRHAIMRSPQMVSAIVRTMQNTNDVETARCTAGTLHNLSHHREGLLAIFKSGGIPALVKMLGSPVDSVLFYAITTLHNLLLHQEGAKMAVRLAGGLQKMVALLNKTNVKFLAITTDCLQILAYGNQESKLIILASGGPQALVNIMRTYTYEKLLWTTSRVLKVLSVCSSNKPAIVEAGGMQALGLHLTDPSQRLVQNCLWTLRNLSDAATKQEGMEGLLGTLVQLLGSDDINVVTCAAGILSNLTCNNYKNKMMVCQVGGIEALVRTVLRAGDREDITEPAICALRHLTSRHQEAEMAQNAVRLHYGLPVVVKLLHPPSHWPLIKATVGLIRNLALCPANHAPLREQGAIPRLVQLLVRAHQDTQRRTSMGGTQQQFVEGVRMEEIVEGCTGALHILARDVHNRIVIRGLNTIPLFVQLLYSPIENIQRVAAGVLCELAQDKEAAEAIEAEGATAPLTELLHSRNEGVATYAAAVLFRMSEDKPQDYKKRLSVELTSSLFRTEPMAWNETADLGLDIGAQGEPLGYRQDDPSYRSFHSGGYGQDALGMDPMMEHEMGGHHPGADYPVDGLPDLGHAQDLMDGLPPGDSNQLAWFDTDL
In words: Fluorescence polarization IC50 (beta-catenin / 5FAM-TCF4 10-53 competition). The class given is binding. In general terms: Polarisation of emitted light reports the rotation of a fluorescent probe.

Data set [2] addresses T2, full-length B-Catenin (Uniprot ID P35222) (Homo sapiens, UniProt P35222).
T2 construct: 65 nM full-length B-Catenin (Uniprot ID P35222)
T2 sequence (P35222 1-781): T1 sequence (P35222 1-781)
In words: Alphascreen binding assay (beta-catenin / biotin-TCF4 10-53). The procedure, abridged: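 Final concentrations: 65 nM full-length human β-catenin plus 10 nM biotin-TCF4(10-53) peptide, test peptide 3-fold from 10 uM to 5 nM, preincubated 15 min at 20 °C in Tris pH 8.0/250 mM NaCl buffer. Nickel-chelate AlphaScreen donor/acceptor beads then added for 60 min in the dark; duplicate reads fitted to 1:1 binding model with Hill slope.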
(In general: Bead proximity is the source of the signal in Alpha formats.)

Data set [3] addresses T3, beta-catenin/TCF4 engagement (Homo sapiens, UniProt P35222).
T3 construct: expressed in transfected cells; host or cells: HEK293
T3 sequence (P35222 1-781): T1 sequence (P35222 1-781)
In words: Nano-BRET target engagement assay (B-cat-Halo & TCF4-Luc in HEK293 cells). The class given is cell-based. (BRET reads energy transfer from a luciferase to a nearby fluorophore.)

The test system of a further data set is COLO320DM cells. The class given is cell-based. The conditions noted are these: COLO320DM cells, read-out: COLO320DM Proliferation Abs IC50. How it is done:
COLO320DM proliferation assay IC50: In some embodiments, inhibition of cell proliferation by provided technologies were assessed using cell lines related to or from certain conditions, disorders or diseases. In some embodiments, cell proliferation was assessed in COLO320DM cells. In some embodiments, assessment was performed using the following procedure: On Day 1, cultured COLO320DM cells in a T75 flask were trypsinized in 3 mL of 0.25% trypsin/EDTA for 5 min and quenched with 10 mL RPMI-1640+4% HI FBS assay media. The cells were spun down at 1200 rpm for 5 min, the cell pellet collected and re-suspended at 5000 cells/mL in assay media. Using a Combi liquid handler, cells were dispensed (50 uL, 250 cells/well) into three 384 well plates. Plates were incubated at 37° C., […]. On day 2, compounds were added. A liquid handling system was used to prepare the compound dilution and dispense compound into assay plates. The compounds were serially diluted 1/2 in 90% DMSO to create a 7 point dose curve. From compound plate, 100 nL of compound were dispensed directly into wells of the assay plates to create a dose curve starting at 20 uM and ending at 313 nM. Assay plates were incubated at 37° C., […]. On day 6, assay plates were removed from the incubator and allowed to sit at room temperature for 30 min. Using a liquid handler, 20 uL of CellTiter Glo reagent was added to each well. The assay plates were shaken for 2 min and allowed to sit on the bench for 10-15 minutes. The assay plates were read using the CellTiter Glo protocol on a GloMax microplate reader, and the data analyzed using GraphPad Prism.

The mark [4] stands for this setting: Table E2-1, read-out: beta-Catenin FP IC50.
Where [5] appears, read: fluorescence polarization, beta-catenin, read-out: FP EC50.
Where [6] appears, read: fluorescence polarization, read-out: beta-Catenin FP IC50.

As for `CC[C@H](C)[C@H](NC(=O)[C@H](CC(=O)O)NC(=O)[C@H](C)NC(C)=O)C(=O)N[C@]1(C)CCN(C)C(=O)OCC=CCCCCC[C@@](C)(C(=O)N[C@@H](Cc2ccccc2)C(=O)N[C@@H](Cc2c[nH]c3ccccc23)C(=O)N[C@@H](Cc2c[nH]cn2)C(N)=O)NC(=O)[C@H](CCC(N)=O)NC(=O)[C@H](Cc2ccccc2)NC(=O)[C@H](C)NC(=O)[C@H](C)NC(=O)[C@H](CCC(=O)O)NC(=O)[C@H](CC(=O)O)NC1=O` [I-67, Ac-Ala-Asp-Ile-RdN-Asp-Glu-Ala-Ala-Phe-Gln-S7-Phe-Trp-His-NH2], in the data set “CHI Log D procedure”, the “CHI Log D” value is reported as 1.24. Further, the “Solubility” value in “Solubility in PBS” turned out to be 50 µM (≈ 92.1 µg/mL). Further, the IC50 in data set [1] (setting [4]) and in data set [1] (setting [5]) was 1230 nM throughout. The midpoint of the response in data set [2], the EC50, lay at 0.154 µM.

As for `CCN(CC(=O)O)C[C@@H]1NC(=O)[C@H](CC(=O)O)NC(=O)C2(CCCC=CCCCCCC[C@@](C)(C(=O)N[C@@H](Cc3ccccc3)C(=O)N[C@@H](Cc3c[nH]c4ccccc34)C(=O)N[C@@H](CCC(N)=O)C(N)=O)NC(=O)[C@H](C(C)C)NC(=O)[C@H](Cc3ccccc3)NC(=O)[C@H](C)NC(=O)[C@H](C)NC1=O)CCCC=CC[C@]1(CCCN1C(C)=O)C(=O)N[C@@H](CC(=O)O)C(=O)N[C@@H](C)C(=O)N2` (stereo partly drawn) [I-173, Ac-PL3-Asp-Ala-B5-Asp-EtGA-Ala-Ala-Phe-Val-S8-Phe-Trp-Gln-NH2], the “CHI Log D” value in “CHI Log D procedure” stood at 3.076. Further, the “Solubility” value in “Solubility in PBS” was found to be 26 µM (≈ 47.8 µg/mL). Further, the IC50 in data set [1] (setting [4]) and in data set [1] (setting [5]) was 3120 nM throughout. In data set [2], this compound registered an EC50 of 0.105 µM.

In the case of `CC(=O)N1CCC[C@]12CC=CCCCC1(CCCC=CCCCCCC[C@@](C)(C(=O)N[C@@H](Cc3ccccc3)C(=O)N[C@@H](Cc3c[nH]c4ccccc34)C(=O)N[C@@H](CCC(N)=O)C(N)=O)NC(=O)[C@H](C)NC(=O)[C@H](Cc3ccccc3)NC(=O)[C@H](C)NC(=O)[C@H](C)NC(=O)[C@H](CC(=O)O)NC(=O)[C@H](CC(=O)O)NC1=O)NC(=O)[C@H](C)NC(=O)[C@H](CC(=O)O)NC2=O` (stereo partly drawn) [I-288, Ac-PL3-Asp-Ala-B5-Asp-Asp-Ala-Ala-Phe-Ala-S8-Phe-Trp-Gln-NH2], in the data set “CHI Log D procedure”, the “CHI Log D” value is 1.926. Besides, the “Solubility” value in the data set “Solubility in PBS” turned out to be 32 µM (≈ 56.1 µg/mL). Also, the IC50 in data set [1] (setting [4]) and in data set [1] (setting [5]) was 1310 nM in each case. In data set [2], this compound showed a half-maximal effective concentration (EC50) of 0.074 µM.

With `CC(=O)N1CCC[C@]12CC=CCCCC1(CCCC=CCCCOC(=O)N3CC[C@@](C(=O)N[C@@H](Cc4ccccc4Cl)C(=O)N[C@@H](Cc4csc5ccccc45)C(=O)N[C@@H](CC(N)=O)C(N)=O)(C3)NC(=O)[C@H](CC(C)C)NC(=O)[C@H](Cc3ccccc3)NC(=O)[C@H](C)NC(=O)[C@H](C)NC(=O)[C@H](Cc3cccc(C(=O)O)c3)NC(=O)[C@H](CC(=O)O)NC1=O)NC(=O)[C@H](CC(C)(C)C)NC(=O)[C@H](CC(=O)O)NC2=O` (stereo partly drawn) [I-1904, Ac-PL3-Asp-Npg-B5-Asp-3COOHF-Ala-Ala-Phe-Leu-PyrS2-2C1F-BztA-Asn-NH2], the IC50 is 4.2 µM in data set [3] (read-out: NanoBRET Abs IC50), 15 nM in data set [1] (setting [6]) and > 20 µM with COLO320DM cells.

Take `CC(=O)N1CCC[C@]12CC=CCCCC1(CCCC=CCCCOC(=O)N3CC[C@@](C(=O)N[C@@H](Cc4ccccc4Cl)C(=O)N[C@@H](Cc4csc5ccccc45)C(=O)N[C@@H](CC(N)=O)C(=O)N[C@@H](C)C(=O)N[C@@H](C)C(=O)N[C@@H](C)C(N)=O)(C3)NC(=O)[C@H](CC(C)C)NC(=O)[C@H](Cc3ccccc3)NC(=O)[C@H](C)NC(=O)[C@H](C)NC(=O)[C@H](Cc3cccc(C(=O)O)c3)NC(=O)[C@H](CC(=O)O)NC1=O)NC(=O)[C@H](CC(C)(C)C)NC(=O)[C@H](CC(=O)O)NC2=O` (stereo partly drawn) [I-2040, Ac-PL3-Asp-Npg-B5-Asp-3COOHF-Ala-Ala-Phe-Leu-PyrS2-2C1F-BztA-Asn-Ala-Ala-Ala-NH2]: the IC50 in data set [3] (read-out: NanoBRET Abs IC50) is 2.8 µM; in data set [1] (setting [6]), 24 nM; in the data set with COLO320DM cells, > 20 µM.

On to `CC(=O)N1CCC[C@]12CC=CCCCC1(CCCC=CCCCOC(=O)N3CC[C@@](C(=O)N[C@@H](Cc4ccsc4)C(=O)N[C@@H](Cc4csc5ccccc45)C(=O)N[C@@H](CC(N)=O)C(N)=O)(C3)NC(=O)[C@H](Cc3ccccc3)NC(=O)[C@H](Cc3ccccc3)NC(=O)[C@H](C)NC(=O)[C@H](C)NC(=O)[C@H](Cc3cccc(C(=O)O)c3)NC(=O)[C@H](CC(=O)O)NC1=O)NC(=O)[C@H](CC(C)(C)C)NC(=O)[C@H](CC(=O)O)NC2=O` (stereo partly drawn) [I-2044, Ac-PL3-Asp-Npg-B5-Asp-3COOHF-Ala-Ala-Phe-Phe-PyrS2-3Thi-BztA-Asn-NH2], for which the IC50 in data set [3] (read-out: NanoBRET Abs IC50) was 2.6 µM; in data set [1] (setting [6]), 9 nM; in the data set on COLO320DM cells it was > 20 µM.

Consider `CC(=O)N1CCC[C@]12CC=CCCCC1(CCCC=CCCCOC(=O)N3CC[C@@](C(=O)N[C@@H](Cc4ccsc4)C(=O)N[C@@H](Cc4csc5ccccc45)C(=O)N[C@@H](CC(N)=O)C(=O)N[C@@H](C)C(=O)N[C@@H](C)C(=O)N[C@@H](C)C(=O)N[C@@H](C)C(=O)N[C@@H](C)C(N)=O)(C3)NC(=O)[C@H](CC(C)C)NC(=O)[C@H](Cc3ccccc3)NC(=O)[C@H](C)NC(=O)[C@H](C)NC(=O)[C@H](Cc3cccc(C(=O)O)c3)NC(=O)[C@H](CC(=O)O)NC1=O)NC(=O)[C@H](CC(C)(C)C)NC(=O)[C@H](CC(=O)O)NC2=O` (stereo partly drawn) [I-2268, Ac-PL3-Asp-Npg-B5-Asp-3COOHF-Ala-Ala-Phe-Leu-PyrS2-3Thi-BztA-Asn-Ala-Ala-Ala-Ala-Ala-NH2], for which the IC50 in data set [3] (absolute IC50, read-out: NanoBRET Abs IC50) was 3.1 µM; in data set [1] (setting [6]) it was 13 nM; with COLO320DM cells (absolute IC50) it was 4.3 µM.

Turning to `CC(=O)N1CCC[C@]12CC=CCCCC1(CCCC=CCCCOC(=O)N3CC[C@@](C(=O)N[C@@H](Cc4ccsc4)C(=O)N[C@@H](Cc4csc5ccccc45)C(=O)N[C@@H](CC(N)=O)C(=O)N[C@@H](C)C(=O)N[C@@H](C)C(=O)N[C@@H](C)C(=O)N[C@@H](C)C(=O)N[C@@H](C)C(=O)N[C@@H](C)C(=O)N[C@@H](C)C(N)=O)(C3)NC(=O)[C@H](CC(C)C)NC(=O)[C@H](Cc3ccccc3)NC(=O)[C@H](C)NC(=O)[C@H](C)NC(=O)[C@H](Cc3cccc(C(=O)O)c3)NC(=O)[C@H](CC(=O)O)NC1=O)NC(=O)[C@H](CC(C)(C)C)NC(=O)[C@H](CC(=O)O)NC2=O` (stereo partly drawn) [I-2269], the IC50 in data set [3] (NanoBRET Abs IC50 (uM), absolute IC50) was determined as 2.3 µM; in data set [1] (beta-Catenin FP IC50 (nM), fluorescence polarization) it was 20 nM; with COLO320DM cells (absolute IC50), 3.9 µM.
